# From PubChem BioAssay (NCI)
#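 Briefly, cells in 96-well plates were exposed to five compound concentrations for 48 h, and endpoints were estimated by linear interpolation. TGI: concentration producing complete growth inhibition.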
# What was measured:
# Test in all cases: DTP human tumour cell line panel, 48 h
# [1] = test system: OVCAR-4 ovarian
# [2] = test system: PC-3 prostate
# [3] = test system: NCI/ADR-RES ovarian
# [4] = test system: SF-268 CNS
# [5] = test system: UO-31 renal
# [6] = test system: U251 CNS
# [7] = test system: NCI-H23 lung
# [8] = test system: SNB-19 CNS
# [9] = test system: M14 melanoma
# [10] = test system: MDA-MB-435
# [11] = test system: A498 renal
# [12] = test system: SK-MEL-5 melanoma
# [13] = test system: RXF 393 renal
# [14] = test system: COLO 205 colon
# [15] = test system: ACHN renal
# [16] = test system: MDA-N
# [17] = test system: SN12C renal
# [18] = test system: HT29 colon
# [19] = test system: SR leukemia
Compound,TGI [1] [µM],TGI [2] [µM],TGI [3] [µM],TGI [4] [µM],TGI [5] [µM],TGI [6] [µM],TGI [7] [µM],TGI [8] [µM],TGI [9] [µM],TGI [10] [µM],TGI [11] [µM],TGI [12] [µM],TGI [13] [µM],TGI [14] [µM],TGI [15] [µM],TGI [16] [µM],TGI [17] [µM],TGI [18] [µM],TGI [19] [µM]
CN(C)C1(N(C)C)Oc2c(c(=O)n(C)c(=O)n2C)C(c2ccccc2Br)C1(F)F (configuration not stated),> 100,> 100,> 100,> 100,> 100,> 100,> 100,> 100,> 100,> 100,> 100,> 100,> 100,> 100,> 100,–,–,–,–
CN(C)C(=S)N/N=C(\C(=N/NC(=S)N(C)C)c1ccccn1)c1ccccn1,26.8,24.4,62.1,23.7,21.6,20.4,> 53.2,31.8,42.3,26,30.2,24.5,18.1,24.2,20.1,> 54,20.3,17.6,–
COc1ccc2c(c1)CCN1CCCc3ccc(OC)cc3C21 (configuration not stated),> 100,> 100,> 100,> 100,> 100,> 100,> 100,> 100,> 100,> 100,> 100,> 100,> 100,> 100,> 100,–,> 100,> 100,> 100
COc1cc([C@@H]2c3cc4c(cc3[C@@H](OC3OC5COC(C)OC5C(OC(=O)CN5CCN(C)CC5)C3OC(=O)CN3CCN(C)CC3)C3COC(=O)[C@@H]32)OCO4)cc(OC)c1OC(=O)CN1CCN(C)CC1 (some centres not stated),> 100,> 100,> 100,> 100,> 100,> 100,> 100,> 100,> 100,> 100,–,> 100,> 100,> 100,> 100,> 100,> 100,> 100,–
CCOC(=O)c1c(-c2ccccc2)nc2c(OC)nccn12,> 100,> 100,> 100,> 100,> 100,> 100,> 100,> 100,> 100,> 100,–,> 100,80.9,> 100,–,–,> 100,> 100,> 100
COc1ccc2nc3cc([N+](=O)[O-])ccc3c(Nc3ccc(S(=O)(=O)N=C(N)N)cc3)c2c1,> 100,> 100,–,> 100,> 100,> 100,> 100,> 100,> 100,> 100,> 100,36.4,> 100,70.6,> 100,> 100,> 100,> 100,4.68
CC1C2(C)OC(=N)C(C#N)(C(C)O2)C1(C#N)C#N (configuration not stated),–,> 100,> 100,> 100,> 100,50,86.8,–,35.8,–,> 100,25.8,35.7,24.5,> 100,36.1,29.8,> 100,–
